Reference: patent US20260176289A1, “SMALL MOLECULE INHIBITORS OF KRAS PROTEINS” (Merck Sharp & Dohme LLC, priority 2022, published 2026)

Columns and labels:
Format in all cases: biochemical
[1] = biological target: T1, KRAS G12C (amino acids 1-169) (Homo sapiens, UniProt P01116, G12C); experiment: SOS-catalyzed nucleotide exchange assay (Procedure B, BODIPY FL GDP displacement), KRAS G12C; details: read-out: KRAS G12C GNE IC50
T1 construct: made in house; host or cells: E. coli
Experimental: (§1) Procedure for SOS-Catalyzed Nucleotide Exchange Assay for KRAS-G12C/D/V/WT (Procedure B)
(§2) Recombinant KRAS G12C (amino acids 1-169, SEQ ID NO:9), KRAS G12D (amino acids 1-169, SEQ ID NO: 10), KRAS G12V (amino acids 1-169, SEQ ID NO: 11), KRAS WT (amino acids 1-169, SEQ ID NO:12) and SOS1 (amino acids 564-1049, SEQ ID NO: 13) proteins were expressed in E. coli and purified by affinity chromatography. To prepare each BODIPY™ FL GDP-bound KRAS protein, 50 μM KRAS proteins were incubated with 0.5 mM BODIPY™ FL GDP (Invitrogen, G22360) in a loading buffer (20 mM Tris-HCl pH 7.5, 50 mM NaCl, 1 mM DTT and 2.5 mM EDTA) for 1 hour on ice. After the incubation, MgCl2 was added to a final concentration of 10 mM, followed by an incubation at room temperature for 30 minutes. The mixtures were allowed to pass through a NAP-5 column to remove free nucleotides and purified BODIPY™ FL GDP-bound KRAS G12C, G12D, G12V and WT proteins were used for compound evaluation.
(§3) The inhibitory activity of compounds on recombinant KRAS is measured by the displacement of the bound BODIPY™ GDP. Specifically, 2.5 nM of each BODIPY™ FL GDP-bound KRAS complex was incubated with various concentrations of compound in a reaction buffer (20 mM Tris-HCl pH 7.5, 100 mM NaCl, 1 mM MgCl2, 2 mM DTT, 0.1% Tween 20) at 25° C. for 1 hour. After the incubation, recombinant SOS1 and GMPPNP (Jena Bioscience GmbH, NU-401) were added and incubated at room temperature for 30 minutes to proceed SOS1-dependent GDP-GTP exchange reaction on KRAS. Displacement of BODIPY™ FL GDP by Guanosine-5′-[(β,γ)-imido]triphosphate, Tetralithium salt (GMPPNP) was measured by calculating the ratio of fluorescence intensities of BODIPY™ FL before and after the exchange reaction. Percent Inhibition was calculated by setting the fluorescence ratio from the reaction without test compound (DMSO control) and the fluorescence ratio from the reaction without SOS1 and GMPPNP as 0% and 100% inhibition, respectively. Dose response curves were analyzed using a 4-parameter logistic model to calculate IC50 values.

[2] = biological target: T2, KRAS G12D (amino acids 1-169) (Homo sapiens, UniProt P01116, G12D); experiment: SOS-catalyzed nucleotide exchange assay (Procedure B, BODIPY FL GDP displacement), KRAS G12D; details: read-out: KRAS G12D GNE IC50
T2 construct: made in house; host or cells: E. coli
T2 sequence (P01116 with tags, fused parts or gaps isoform P01116-2 G12D): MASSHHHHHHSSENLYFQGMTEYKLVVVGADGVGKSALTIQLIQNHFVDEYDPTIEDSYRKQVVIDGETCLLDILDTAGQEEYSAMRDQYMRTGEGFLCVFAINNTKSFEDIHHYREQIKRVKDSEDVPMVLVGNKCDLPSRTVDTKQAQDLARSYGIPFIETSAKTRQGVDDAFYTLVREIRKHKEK
Experimental: as §1, §2, §3

[3] = biological target: T3, KRAS G12V (amino acids 1-169) (Homo sapiens, UniProt P01116, G12V); experiment: SOS-catalyzed nucleotide exchange assay (Procedure B, BODIPY FL GDP displacement), KRAS G12V; details: read-out: KRAS G12V GNE IC50
T3 construct: made in house; host or cells: E. coli
T3 sequence (P01116 with tags, fused parts or gaps isoform P01116-2 G12V): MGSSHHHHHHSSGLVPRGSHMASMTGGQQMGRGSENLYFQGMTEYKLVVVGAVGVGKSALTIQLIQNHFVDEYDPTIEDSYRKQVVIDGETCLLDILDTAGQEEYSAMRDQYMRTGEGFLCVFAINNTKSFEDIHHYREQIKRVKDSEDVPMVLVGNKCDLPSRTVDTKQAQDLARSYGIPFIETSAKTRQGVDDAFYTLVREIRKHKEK
Experimental: as §1, §2, §3

[4] = biological target: T4, KRAS WT (amino acids 1-169) (Homo sapiens, UniProt P01116); experiment: SOS-catalyzed nucleotide exchange assay (Procedure B, BODIPY FL GDP displacement), KRAS WT; details: read-out: KRAS WT GNE IC50
T4 construct: made in house; host or cells: E. coli
T4 sequence (P01116 with tags, fused parts or gaps isoform P01116-2): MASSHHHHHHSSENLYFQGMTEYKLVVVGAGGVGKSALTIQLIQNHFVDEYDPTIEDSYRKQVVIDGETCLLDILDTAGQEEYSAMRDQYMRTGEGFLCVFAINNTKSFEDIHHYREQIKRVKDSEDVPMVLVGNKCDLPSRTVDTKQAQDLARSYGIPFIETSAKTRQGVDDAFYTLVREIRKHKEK
Experimental: as §1, §2, §3

T1 sequence (P01116 with tags, fused parts or gaps isoform P01116-2 G12C): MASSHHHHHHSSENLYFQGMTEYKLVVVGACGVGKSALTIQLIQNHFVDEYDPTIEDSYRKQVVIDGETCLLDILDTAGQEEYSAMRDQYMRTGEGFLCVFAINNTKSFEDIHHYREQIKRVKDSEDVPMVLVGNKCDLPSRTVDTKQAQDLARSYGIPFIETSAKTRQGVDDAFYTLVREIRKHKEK

| IC50 [1] | IC50 [2] | IC50 [3] | IC50 [4] | SMILES |
| --- | --- | --- | --- | --- |
| 340 nM | 438 nM | 490 nM | 432 nM | CC(=O)N1CC(Nc2nc(OC[C@@]34CCCN3C[C@H](F)C4)nc3sc4c(-c5c(C(F)(F)F)c(C)cc6[nH]ncc56)nccc4c23)C1 [Ex-190, 1-(3-((2-(((2R,7aS)-2-fluorotetrahydro-1H-pyr-rolizin-7a(5H)-yl)meth-oxy)-8-(6-methyl-5-(tri-fluoromethyl)-1H-indazol-4-yl)pyrido[4′,3′:4,5]thieno[2,3-d]pyrimidin-4-yl)amino)azetidin-1-yl)-ethan-1-one] |
| 55.1 nM | 57.6 nM | 61.3 nM | 167 nM | Cc1cc2[nH]ncc2c(-c2nccc3c2sc2nc(OC[C@@]45CCCN4C[C@H](F)C5)nc(N4CCOCC5(CC(=O)N5)C4)c23)c1C(F)(F)F (stereo partly drawn) [Ex-194, 9-(2-(((2R,7aS)-2-fluoro-tetrahydro-1H-pyrrolizin-7a(5/7)-yl)methoxy)-8-(6-methyl-5-(trifluorometh-yl)-1H-indazol-4-yl)pyrido [4′,3′:4,5]thieno[2,3-d]pyrimidin-4-yl)-6-oxa-1,9-diazaspiro[3.6]decan-2-one] |
| 590 nM | 493 nM | 936 nM | 767 nM | CO[C@]1(C)COCCN(c2nc(OC[C@@]34CCCN3C[C@H](F)C4)nc3sc4c(-c5c(C(F)(F)F)c(C)cc6[nH]ncc56)nccc4c23)C1 [Ex-203, (6S)-4-(2-(((2R,7aS)-2-fluorotetrahydro-1H-pyrrolizin-7a(5H)-yl)methoxy)-8-(6-methyl-5-(trifluoromethyl)-1H-indazol-4-yl)pyrido[4′,3′:4,5]thieno[2,3-d]pyrimidin-4-yl)-6-methoxy-6-methyl-1,4-oxazepane] |
| 48 nM | 30.6 nM | 42.1 nM | 50.9 nM | C[C@H]1CN2C[C@H](F)C[C@@]2(COc2nc(N3CCOC[C@@](C)(O)C3)c3c(n2)sc2c(-c4c(C5CC5)c(Cl)cc5[nH]ncc45)nccc23)C1 [Ex-226, (6S)-4-(8-(6-chloro-5-cyclopropyl-1H-indazol-4-yl)-2-(((2R,6R,7aR)-2-fluoro-6-methyl-tetrahydro-1H-pyrrolizin-7a(5H)-yl)methoxy)pyrido [4′,3′:4,5]thieno[2,3-d]pyrimidin-4-yl)-6-methyl-1,4-oxaze-pan-6-ol] |
| 5.84 nM | 4.26 nM | 12.5 nM | 13.5 nM | C[C@@]1(O)COCCN(c2nc(OC[C@@]34CCCN3C[C@H](F)C4)nc3sc4c(-c5c(-c6ccco6)c(Cl)cc6[nH]ncc56)nncc4c23)C1 [Ex-282] |
| 645 nM | 322 nM | 1000 nM | 889 nM | C#Cc1cccc2cccc(-c3nncc4c3sc3nc(OC[C@@]56CCCN5C[C@H](F)C6)nc(N5CCOC[C@@](C)(O)C5)c34)c12 [Ex-285] |
| 85.2 nM | 49.8 nM | 159 nM | 113 nM | Cc1cc2[nH]ncc2c(-c2nccn3c2c(C)c2nc(OC[C@@]45CCCN4C[C@H](F)C5)nc(N4CCOC[C@@](C)(O)C4)c23)c1C1CC1 [Ex-298, (S)-4-(9-(5-cyclopropyl-6-methyl-1H-indazol-4-yl)-2-(((2R,7aS)-2-fluorotetrahydro-1H-pyrrolizin-7a(5H)-yl)methoxy)-10-methylpyrazi-no[1′,2′:1,5]pyrrolo[3,2-d]pyrimidin-4-yl)-6-methyl-1,4-oxazepan-6-ol] |
| 1140 nM | 380 nM | 837 nM | 732 nM | C[C@@]1(O)COCCN(c2nc(OC[C@@]34CCCN3C[C@H](F)C4)nc3c(I)c4c(-c5c(C6CC6)c(Cl)cc6[nH]ncc56)nccn4c23)C1 [Ex-303, (S)-4-(9-(6-chloro-5-cyclopropyl-1H-indazol-4-yl)-2-(((2R,7aS)-2-fluorotetrahydro-1H-pyrrolizin-7a(5H)-yl)methoxy)-10-iodopyrazino [1′,2′:1,5]pyrrolo [3,2-d]pyrimidin-4-yl)-6-methyl-1,4-oxazepan-6-ol] |
| 24.9 nM | 13.1 nM | 33.9 nM | 34 nM | C#Cc1c(Cl)cc2[nH]ncc2c1-c1nccn2c1c(F)c1nc(OC[C@@]34CCCN3C[C@H](F)C4)nc(N3CCOC[C@@](C)(O)C3)c12 [Ex-304, (S)-4-(9-(6-chloro-5-ethynyl-1H-indazol-4-yl)-10-fluoro-2-(((2R,7aS)-2-fluorotetrahydro-1H-pyrrolizin-7a(5H)-yl)methoxy)pyrazino[1′,2′:1,5]pyrrolo[3,2-d]pyrimidin-4-yl)-6-methyl-1,4-oxazepan-6-ol] |
| 10.8 nM | 4.7 nM | 18.9 nM | 16.6 nM | Cc1cc2[nH]ncc2c(-c2nccn3c2c(F)c2nc(OC[C@@]45CCCN4C[C@H](F)C5)nc(N4CCOC[C@@](C)(O)C4)c23)c1C1CC1 [Ex-306, (S)-4-(9-(5-cyclopropy1-6-methyl-1H-indazol-4-yl)-10-fluoro-2-(((2R,7aS)-2-fluorotetrahydro-1H-pyrrolizin-7a(5H)-yl)methoxy)pyrazino[1′2′:1,5]pyrrolo[3,2-d]pyrimidin-4-yl)-6-methyl-1,4-oxazepan-6-o1] |
